Data reported in ChEMBL document CHEMBL1134735, “Synthesis and photodynamic action of diphenyl-2,3-dihydroxychlorin: a potential tumor photosensitizer” (2001).

Test: The dark toxicity against 543 human galactophore carcinoma cells
Type: functional

SMILES: OC1c2cc3ccc([nH]3)c(-c3ccccc3)c3ccc(cc4nc(c(-c5ccccc5)c(n2)C1O)C=C4)[nH]3 (stereo unspecified)
- IC90: > 32 µg/mL
